We go through 22 molecules from ChEMBL document CHEMBL4130341 (Medchemcomm, 2016).

In data set [1] the target is T1, Nuclear factor erythroid 2-related factor 2 (Mus musculus) (UniProt Q60795).
T1 sequence (whole entry): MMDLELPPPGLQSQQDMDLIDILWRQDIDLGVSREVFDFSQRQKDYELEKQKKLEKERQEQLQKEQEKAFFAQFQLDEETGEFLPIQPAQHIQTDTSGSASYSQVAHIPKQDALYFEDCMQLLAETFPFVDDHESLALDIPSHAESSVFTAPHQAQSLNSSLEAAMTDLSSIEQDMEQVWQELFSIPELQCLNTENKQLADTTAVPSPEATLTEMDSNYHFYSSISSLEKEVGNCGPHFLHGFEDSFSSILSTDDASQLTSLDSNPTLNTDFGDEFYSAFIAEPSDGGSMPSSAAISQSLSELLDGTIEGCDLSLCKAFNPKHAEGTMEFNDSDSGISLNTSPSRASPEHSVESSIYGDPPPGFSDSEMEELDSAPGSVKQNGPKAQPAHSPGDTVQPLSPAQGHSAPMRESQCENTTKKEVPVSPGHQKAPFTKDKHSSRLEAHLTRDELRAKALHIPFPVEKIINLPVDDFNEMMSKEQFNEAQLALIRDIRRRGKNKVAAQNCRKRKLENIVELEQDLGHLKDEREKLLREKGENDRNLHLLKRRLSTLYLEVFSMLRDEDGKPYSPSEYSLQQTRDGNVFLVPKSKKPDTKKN
In words: Activation of Nrf2 in mutant mouse BpRc1 cells cytosolic fraction assessed as induction of quinone reductase activity at 10 uM using 2,6-DCIP as substrate in presence of NADH incubated for 48 hrs measured for 1 min relative to control. Type of data set: cell-based.

The target in data set [2] is T1, Nuclear factor erythroid 2-related factor 2 (Mus musculus). The experiment in a line: Activation of Nrf2 in wild type mouse Hepa1c1c7 cells cytosolic fraction assessed as induction of quinone reductase activity at 10 uM using 2,6-DCIP as substrate in presence of NADH incubated for 48 hrs measured for 1 min relative to control.
Data set [3] concerns MCF7. The experiment in a line: Cytotoxicity against human MCF7 cells assessed as cell survival at 100 uM after 24 hrs by SRB assay relative to control. Type of data set: functional. Particulars: for viability at 100 µM: MCF7, 24 h, read-out: Survival.
The subject of data set [4] is Salmonella typhimurium. The experiment in a line: Mutagenicity in Salmonella typhimurium TA98 in presence of mouse liver S9 fraction by Ames test. Format: toxicity, organism-based. Conditions: salmonella enterica subsp. enterica serovar typhimurium. In general terms: The Ames test uses bacterial strains that need an amino acid and regain growth without it when mutated back.

Data set [5] concerns the target T1, Nuclear factor erythroid 2-related factor 2 (Mus musculus). The experiment in a line: Ratio of activation of wild type Nrf2 in mouse Hepa1c1c7 cells cytosolic fraction to activation of Nrf2 in mutant mouse BpRc1 cells cytosolic fraction. Format: cell-based.
Data set [6] concerns HK-2. The experiment in a line: Genotoxicity in human HK2 cells assessed as induction of DNA strand breakage at 20 uM after 6 hrs by DAPI staining based alkaline comet assay. Type of data set: toxicity, cell-based. Conditions: hk-2, 6 h.
Data set [7] is described as follows: Cytotoxicity against wild type mouse Hepa1c1c7 cells after 48 hrs by SRB assay. Format: functional, cell-based. Particulars: Hepa-1c1c7, 48 h. In general terms: In SRB staining, fixed cells bind dye roughly in proportion to their protein.
Data set [8] is described as follows: Ratio of IC50 for cytotoxicity against wild type mouse Hepa1c1c7 cells to CD for activation of Nrf2 in wild type mouse Hepa1c1c7 cells cytosolic fraction.
For data set [9], the target named is T1, Nuclear factor erythroid 2-related factor 2 (Mus musculus). In words: Induction of Nrf2 nuclear translocation in mouse Hepa1c1c7 cells at 20 uM after 6 hrs by DAPI/Hoechst 33258 staining-based immunofluorescence method. Type of data set: cell-based.
Data set [10] in a line: Cytotoxicity against mutant mouse BpRc1 cells after 48 hrs by SRB assay. Format: functional, cell-based. Particulars: BPrc1, 48 h.
The target in data set [11] is T1, Nuclear factor erythroid 2-related factor 2 (Mus musculus). The experiment in a line: Activation of Nrf2 in wild type mouse Hepa1c1c7 cells cytosolic fraction assessed as induction of quinone reductase activity using 2,6-DCIP as substrate in presence of NADH incubated for 48 hrs measured for 1 min.
The nature of data set [12]: Ratio of IC50 for cytotoxicity against mutant mouse BpRc1 cells to CD for activation of Nrf2 in mutant mouse BpRc1 cells cytosolic fraction.
For data set [13], the target named is T1, Nuclear factor erythroid 2-related factor 2 (Mus musculus). The experiment in a line: Ratio of CD for activation of Nrf2 in mutant mouse BpRc1 cells cytosolic fraction to CD for activation of Nrf2 in wild type mouse Hepa1c1c7 cells cytosolic fraction. Type of data set: cell-based.
The target is the same in data set [14]. In words: Activation of Nrf2 in mutant mouse BpRc1 cells cytosolic fraction assessed as induction of quinone reductase activity using 2,6-DCIP as substrate in presence of NADH incubated for 48 hrs measured for 1 min. Type of data set: cell-based.
Data set [15] concerns HT-29. The experiment in a line: Cytotoxicity against human HT-29 cells assessed as cell survival at 100 uM after 24 hrs by SRB assay relative to control. Format: functional. Conditions: HT-29, 24 h, read-out: Survival.
Data set [16] relates to TK-10. In words: Cytotoxicity against human TK10 cells assessed as cell survival after 24 hrs by SRB assay. Format: functional, cell-based. Conditions: TK-10, 24 h.

The source made the active and inactive calls. The rule behind the calls is not given here.

With `O=C(/C=C/c1cccc2ccccc12)c1ccccc1`, the fold change (FC) in data set [1] was determined as 0.92; in data set [2], 0.88. In addition, in data set [3], the result was Active. Besides, the Activity result in data set [4] and in data set [6] was “Non-Toxic” in each case. For the same molecule, the Ratio in data set [5] is 1.

For the molecule `O=C(/C=C/c1ccccn1)c1ccccc1O`, the Activity result in data set [6] is recorded as “Non-Toxic”.

What is called IC50 is the concentration needed to halve the response being measured. `CC(C)(C)c1cc(O)ccc1O` [E319]: the IC50 in data set [7] worked out at 147 µM; in [10] it was 60 µM. Also, the Ratio in data set [8] amounted to 147; in data set [12] it was 10; in [13], 6. The result in data set [9] was Active. The CD turned out to be 1 µM in data set [11] and 6 µM in [14].

Turning to `O=C(/C=C/c1ccc2ccccc2c1)c1ccc2ccccc2c1O`, the fold change (FC) in data set [1] is 0.97; in data set [2], 1.44. In addition, the result in data set [3] was Active. For the same molecule, the Activity entry in data set [4] was “Non-Toxic”. Further, in data set [5], the Ratio is 1.5.

As for `O=C(/C=C/c1ccnc2ccccc12)c1cccc2ccccc12`, the fold change (FC) in [1] turned out to be 1.83; in data set [2], 1.43. For the same molecule, the outcome in data set [3] was Active. The Activity result in [4] is recorded as “Non-Toxic”. Further, in data set [5], the Ratio was 0.8.

`O=C(CC(CC(=O)c1ccccc1)c1cccc2ccccc12)c1ccccc1`: the fold change (FC) in data set [1] came to 2.38; in data set [2], 0.83. Also, the outcome in data set [3] was Active. The Activity result in [4] is “Non-Toxic”. Moreover, the Ratio in [5] was found to be 0.4.

With `O=C(/C=C/c1ccnc2ccccc12)c1ccc2ccccc2c1`, the fold change (FC) is 1.25 in [1] and 1.28 in [2]. Further, the outcome in [3] was Active. In data set [4], the Activity result was “Non-Toxic”. Besides, the Ratio in data set [5] came to 1.

As for `O=C(/C=C/c1cccc2ccccc12)c1c(O)ccc2ccccc12`, the viability at 100 µM in [15] and in data set [3] was below 50% in each case. Further, the fold change (FC) was found to be 0.82 in data set [1] and 1.29 in data set [2]. Besides, the Activity entry in data set [4] and in [6] was “Non-Toxic” each time. Also, in data set [5], the Ratio was 1.6.

`O=C(/C=C/c1cncc(Br)c1)c1ccc2ccccc2c1O`: the fold change (FC) in [1] is 1.13; in [2] it was 2.3. Moreover, the outcome in [3] was Active. Besides, the Activity entry in data set [4] and in data set [6] was “Non-Toxic” in each case. In addition, the Ratio in [5] amounted to 2.

As for `O=C(/C=C/c1ccccc1)c1ccc2ccccc2c1O`, the fold change (FC) in data set [1] is 0.57; in data set [2], 3.04.

`O=C(CC(O)c1ccccc1)c1c(O)ccc2ccccc12` (stereo unspecified): the fold change (FC) stood at 1.14 in data set [1] and 3.31 in [2]. Besides, the outcome in [3] was Active. Also, the Ratio in [5] was determined as 2.9.

On to `O=C(/C=C/c1ccc2ccccc2c1)c1ccccc1`, for which the fold change (FC) in data set [1] worked out at 1.41; in data set [2] it was 0.95. Also, in data set [3], the result was Active. In addition, the Activity entry in [4] and in data set [6] was “Non-Toxic” in each case. For the same molecule, the Ratio in data set [5] worked out at 0.7.

In the case of `O=C(/C=C/c1ccc2ccccc2c1)c1c(O)ccc2ccccc12`, the fold change (FC) in data set [1] was determined as 0.79; in data set [2], 1.76. Moreover, the outcome in [3] was Active. The Activity entry in [4] and in [6] was “Non-Toxic” throughout. Moreover, in data set [5], the Ratio was determined as 2.2.

For the molecule `O=C(/C=C/c1ccnc2ccccc12)c1ccccc1O`, the fold change (FC) in data set [1] was 1.34; in data set [2], 5.42. In addition, the Activity result in data set [4] is listed as “Non-Toxic”. In addition, the Ratio in data set [5] is 4.

As for `O=c1cc(-c2ccc(Br)cc2)oc2ccccc12`, the fold change (FC) came to 1.49 in data set [1] and 4.45 in data set [2]. Also, the IC50 in data set [7] is 85 µM; in data set [10] it was 150 µM. For the same molecule, the Ratio in data set [8] came to 107; in [5], 2.99; in data set [12], 1.9; in data set [13], 101. Besides, the results for the CD in [11] and in [14] were 0.79 µM and 80 µM, respectively.

`O=C(/C=C/c1cncc(Br)c1)c1ccccc1O`: the fold change (FC) was 1.03 in [1] and 1.51 in [2]. For the same molecule, the result in data set [3] was Active. For the same molecule, in [4], the Activity entry is listed as “Non-Toxic”. The IC50 in data set [16] is 20 µM. The Ratio in data set [5] was 1.5.

With `O=C(CC(O)c1ccccc1)c1ccc2ccccc2c1` (stereo unspecified), the fold change (FC) was 1.74 in [1] and 5.04 in data set [2]. Moreover, in data set [3], the outcome was Active. Further, the Activity entry in data set [4] and in [6] was “Non-Toxic” each time. Besides, the Ratio in data set [5] was found to be 2.9.

Regarding `O=C(/C=C/c1ccc(Br)cc1)c1ccccc1O`, the Activity result in [6] is reported as “Non-Toxic”.

With `O=C(/C=C/c1ccnc2ccccc12)c1ccc2ccccc2c1O`, the values for the fold change (FC) in [1] and in data set [2] were 0.85 and 1.48, respectively. The outcome in data set [3] was Active.

Take `O=C(/C=C/c1ccccc1)c1cccc2ccccc12`: the viability at 100 µM in data set [15] and in data set [3] was below 50% throughout. Also, the fold change (FC) in data set [1] turned out to be 1.13; in data set [2] it was 0.98. The Activity entry in data set [4] and in data set [6] was “Non-Toxic” each time. The IC50 in data set [16] was found to be 20 µM. For the same molecule, the Ratio in data set [5] turned out to be 0.9.

On to `O=C(/C=C/c1cccc(Br)n1)c1ccccc1O`, for which the viability at 100 µM in data set [15] and in data set [3] was below 50% throughout. Further, the fold change (FC) in data set [1] worked out at 1.18; in [2], 1.23. Moreover, the Activity result in data set [4] and in [6] was “Non-Toxic” throughout. Moreover, the IC50 in data set [16] was 18 µM. Also, the Ratio in data set [5] stood at 1.

Regarding `O=C(/C=C/c1ccc2ccccc2c1)c1ccccc1O`, the viability at 100 µM in data set [15] and in data set [3] was below 50% in each case. For the same molecule, the fold change (FC) in data set [1] turned out to be 1.39; in [2] it was 2.96. Besides, the IC50 in data set [7] and in [10] was 85 µM each time. For the same molecule, the Ratio was 170 in [8], 2.1 in data set [5], 4.2 in data set [12] and 40 in data set [13]. Moreover, the Activity entry in data set [4] and in [6] was “Non-Toxic” each time. Besides, the CD was 0.5 µM in data set [11] and 20 µM in data set [14].
